The values that follow come from US20130323721A1, “HEPATOCYTES FOR IN VITRO GENOTOXICITY TESTS” (MEDICYTE GMBH, priority 2010, published 2013).

In series [1] the test system is proliferating hepatocytes. Briefly: Micronucleus formation in proliferating hepatocytes, FACS assay. Here is the method:
So as to check the suitability of the proliferatable hepatocytes described in the patent with respect to genotoxicity tests, the cells were treated with substances that are considered positive and negative substances for genotoxicity. Genotoxicity was quantified by way of the share of induced micronuclei as compared to the control group using an FACS assay.
The proliferating hepatocytes described in the invention were plated out in a density of 3000 cells/cm^2 on collagen-coated cell culture vessels and treated with the aforementioned substances in various concentrations. Within the scope of regulatory testing according to OECD, testing took place up to 50% cytotoxicity, which was determined for each substance beforehand by way of a MTT viability assay.

Series [2] relates to V79 cells. The note with it: with or without S9 mix; cited from earlier work.
In series [3] the test system is bacteria (auxotrophic mutants). The note with it: with S9 fraction of hamster liver; cited from earlier work.

SMILES strings stand for the structures. Read-outs that look alike come from different tables or passages of the source.

Consider `O=P1(N(CCCl)CCCl)NCCCO1` (stereo not shown) [CPA, cyclophosphamide], for which the “Genotoxicity: induced micronuclei compared to the control group” value in series [1] (various concentrations up to 50% cytotoxicity, no external S9, FIGS. 2-4) is on record as “clearly recognized as being positive”. In addition, the “Detection of genotoxicity in micronucleus test” value in series [2] is listed as “only detected in the currently used micronucleus test with V79 cells if the substance was previously converted with a CYP enzyme extract (S9 mix)”.
With `COc1cc(/C=C/C(=O)CC(=O)/C=C/c2ccc(O)c(OC)c2)ccc1O` [curcumin], the “Genotoxicity: induced micronuclei compared to the control group” value in series [1] was “did not induce increased micronuclei formation”.
Consider `CCOc1ccc(NC(C)=O)cc1` [phenacetin], for which, in series [3], the “Ames test result (mutagenicity)” value is “only tested positively in the Ames test if an incubation of phenacetin is carried out with the S9 fraction of hamster liver”.
